Measurements published in PMC10657444, “Design and evaluation of tadpole-like conformational antimicrobial peptides” (Communications Biology, 2023).
Where two headings read alike, the source gives them in different places.

System: MRSA USA 300
Experiment: microbe, parasite or virus in culture
Format: cell-based, Staphylococcus aureus
Details: for MIC: Staphylococcus aureus
Protocol: MRSA USA 300 and K. pneumoniae ATCC 700603 were employed to assess the development of resistance. From inoculated microtiter panels, an aliquot of the well with the highest concentration permitting growth was taken and back diluted in fresh media to a turbidity of a 0.5 McFarland standard. This suspension was then further diluted and used to inoculate a fresh MIC panel resulting in a final concentration of 5 × 10^6 CFU/mL. Panels were incubated according to CLSI guidelines (M07, 11th edition, 2018), MICs were recorded and the next inoculum was prepared from the well containing the highest concentration of drug that allowed growth in identical fashion as described above.

O=C(O)c1cn(C2CC2)c2cc(N3CCNCC3)c(F)cc2c1=O [ciprofloxacin, reference compound]
63 µg/mL: MIC (read-out: Concentration (MIC in drug resistance assay), MRSA USA 300, day 39)
1 µg/mL: MIC (0 h, read-out: Concentration (MIC in drug resistance assay), MRSA USA 300, day 0) | MIC (48 h, read-out: Concentration (MIC in drug resistance assay), MRSA USA 300, day 2) | MIC (72 h, read-out: Concentration (MIC in drug resistance assay), MRSA USA 300, day 3) | MIC (120 h, read-out: Concentration (MIC in drug resistance assay), MRSA USA 300, day 5) | MIC (144 h, read-out: Concentration (MIC in drug resistance assay), MRSA USA 300, day 6) | MIC (264 h, read-out: Concentration (MIC in drug resistance assay), MRSA USA 300, day 11)
64 µg/mL: MIC (read-out: Concentration (MIC in drug resistance assay), MRSA USA 300, day 40)
16 µg/mL: MIC (read-out: Concentration (MIC in drug resistance assay), MRSA USA 300, day 33) | MIC (read-out: Concentration (MIC in drug resistance assay), MRSA USA 300, day 34) | MIC (read-out: Concentration (MIC in drug resistance assay), MRSA USA 300, day 35)
4 µg/mL: MIC (192 h, read-out: Concentration (MIC in drug resistance assay), MRSA USA 300, day 8) | MIC (216 h, read-out: Concentration (MIC in drug resistance assay), MRSA USA 300, day 9) | MIC (288 h, read-out: Concentration (MIC in drug resistance assay), MRSA USA 300, day 12) | MIC (480 h, read-out: Concentration (MIC in drug resistance assay), MRSA USA 300, day 20) | MIC (624 h, read-out: Concentration (MIC in drug resistance assay), MRSA USA 300, day 26) | MIC (read-out: Concentration (MIC in drug resistance assay), MRSA USA 300, day 30)
0.5 µg/mL: MIC (24 h, read-out: Concentration (MIC in drug resistance assay), MRSA USA 300, day 1)
2 µg/mL: MIC (96 h, read-out: Concentration (MIC in drug resistance assay), MRSA USA 300, day 4) | MIC (168 h, read-out: Concentration (MIC in drug resistance assay), MRSA USA 300, day 7) | MIC (240 h, read-out: Concentration (MIC in drug resistance assay), MRSA USA 300, day 10) | MIC (312 h, read-out: Concentration (MIC in drug resistance assay), MRSA USA 300, day 13) | MIC (336 h, read-out: Concentration (MIC in drug resistance assay), MRSA USA 300, day 14) | MIC (360 h, read-out: Concentration (MIC in drug resistance assay), MRSA USA 300, day 15) | MIC (384 h, read-out: Concentration (MIC in drug resistance assay), MRSA USA 300, day 16) | MIC (408 h, read-out: Concentration (MIC in drug resistance assay), MRSA USA 300, day 17) | MIC (432 h, read-out: Concentration (MIC in drug resistance assay), MRSA USA 300, day 18) | MIC (456 h, read-out: Concentration (MIC in drug resistance assay), MRSA USA 300, day 19) | MIC (504 h, read-out: Concentration (MIC in drug resistance assay), MRSA USA 300, day 21) | MIC (528 h, read-out: Concentration (MIC in drug resistance assay), MRSA USA 300, day 22) | MIC (552 h, read-out: Concentration (MIC in drug resistance assay), MRSA USA 300, day 23) | MIC (576 h, read-out: Concentration (MIC in drug resistance assay), MRSA USA 300, day 24) | MIC (600 h, read-out: Concentration (MIC in drug resistance assay), MRSA USA 300, day 25) | MIC (648 h, read-out: Concentration (MIC in drug resistance assay), MRSA USA 300, day 27) | MIC (672 h, read-out: Concentration (MIC in drug resistance assay), MRSA USA 300, day 28) | MIC (696 h, read-out: Concentration (MIC in drug resistance assay), MRSA USA 300, day 29)
64 fold: increase in MIC after 40 passages (serial passage at sub-MIC)
32 µg/mL: MIC (read-out: Concentration (MIC in drug resistance assay), MRSA USA 300, day 32) | MIC (read-out: Concentration (MIC in drug resistance assay), MRSA USA 300, day 36) | MIC (read-out: Concentration (MIC in drug resistance assay), MRSA USA 300, day 37) | MIC (read-out: Concentration (MIC in drug resistance assay), MRSA USA 300, day 38)
8 µg/mL: MIC (read-out: Concentration (MIC in drug resistance assay), MRSA USA 300, day 31)
